Key:
Akt2 = target: T1, Akt2 (Homo sapiens, UniProt P31751); assay: Akt2 activity in human hepatocytes; assay type: cell-based
T1 construct: host or cells: primary human hepatocytes
Method: After thawing, the hepatocytes were distributed (approximately 10^6 cells per 100 mm plate) and incubated approximately 16 hours overnight in Dulbecco's minimal essential medium containing 5% fetal calf serum, 100 units/ml sodium-penicillin, 100 μg/ml streptomycin-sulfate, 1 μM insulin and 2 μM dexamethasone. After washing, cells were incubated first for 2 hours in William's E medium (Sigma-Aldrich, St. Louis, Mo., catalog no. W1878) containing GLUTAMAX™ (Gibco/Invitrogen, Carlsbad, Calif.), 100 units/ml sodium-penicillin, 100 μg/ml streptomycin-sulfate, 10 μM insulin, 100 nM dexamethasone, and then for 2 hours in William's E medium containing 100 units/ml sodium penicillin, 100 μg/ml streptomycin-sulfate, 100 nM dexamethasone, 0.25 mg/ml transferrin, 0.25 μg/ml sodium selenite and 10 μM insulin. Cells were then washed and incubated for 3 hours in the same medium, but lacking insulin. […]
Akt2 Assay: Akt2 enzyme activity was measured with a kit obtained from Upstate Cell Signaling, as described (Standaert et al., J. Biol. Chem. 279:24929-24934, 2004; Sajan et al., J. Lipid Res. 50:1133-1145, 2009; Sajan et al., Diabetologia 52:1197-1207, 2009; Farese et al., J. Clin. Invest. 117:2289-2301, 2007). […] Akt1/2 activation was also assessed by immunoblotting for phosphorylation of serine-473.

[1] = test system: aPKC immunoprecipitated from tissues previously stimulated by insulin; assay: fully-activated aPKC immunoprecipitated from insulin-stimulated tissues; assay type: biochemical
Method: aPKCι Assays: aPKC enzyme activity was measured as previously described (Standaert et al., J. Biol. Chem. 279:24929-24934, 2004; Sajan et al., J. Lipid Res. 50:1133-1145, 2009; Sajan et al., Diabetologia 52:1197-1207, 2009; Farese et al., J. Clin. Invest. 117:2289-2301, 2007). […] After incubation, ^32P-labeled substrate was trapped on P-81 filter paper and counted. […]

aPKC = assay: insulin-stimulated tissue aPKC activity in wild type mice after a single ICAPP injection; assay type: in vivo, mouse; conditions: 1.5 mg/kg ICAPP s.c., 2-30 hours, insulin 1 U/kg
Method: aPKCι Assays: aPKC enzyme activity was measured as previously described (Standaert et al., J. Biol. Chem. 279:24929-24934, 2004; Sajan et al., J. Lipid Res. 50:1133-1145, 2009; Sajan et al., Diabetologia 52:1197-1207, 2009; Farese et al., J. Clin. Invest. 117:2289-2301, 2007). In brief, aPKCs were immunoprecipitated from cell lysates with a rabbit polyclonal antiserum (Santa Cruz Biotechnologies) that recognizes the C-termini of both PKC-ζ and PKC-λ/ι (whereas mouse (Bandyopadhyay et al., Endocrinol. 141:4120-4127, 2000) and human (present findings) muscle contains mainly PKC-λ and PKC-ι, respectively, and little PKC-ζ, mouse and human liver contains substantial amounts of both PKC-ζ and PKC-λ (Sajan et al., J. Lipid Res. 50:1133-1145, 2009; Matsumoto et al., J. Clin. Invest. 112:935-944, 2003; and present results). Immunoprecipitates were collected on Sepharose-AG beads (Santa Cruz Biotechnologies), and beads were suspended and incubated for 8 minutes at 30° C. in 100 buffer containing 50 mM Tris/HCl (pH, 7.5), 100 μM Na3VO4, 100 μM Na4P2O7, 1 mM NaF, 100 μM PMSF, 4 μg phosphatidylserine (Sigma-Aldrich), 50 μM [γ-^32P]ATP (NEN Life Science Products/Perkin-Elmer, Waltham, Mass.), 5 mM MgCl2, and, as substrate, 40 μM serine analogue of the PKC-ε pseudosubstrate (BioSource/Invitrogen, Carlsbad, Calif.). After incubation, ^32P-labeled substrate was trapped on P-81 filter paper and counted. This assay reflects the specific activity of a constant amount of aPKC (even in Het-MλKO mice) that is immunoprecipitated by supplier-prescribed amounts of antiserum (Farese et al., J. Clin. Invest. 117:2289-2301, 2007; Beeson et al., Diabetes 52:1926-1934, 2003).
Wild type mice were treated with 1.5 mg/kg ICAPP subcutaneously and after 2-30 hours, the mice were treated with 1 U/kg insulin 15 minutes before euthanasia. aPKC activity was determined as described in Example 1.

Het-MλKO mice = assay: clinical parameters in Het-MλKO mice (model of obesity/metabolic syndrome/T2DM); assay type: in vivo, mouse; conditions: ICAP-treated Mλ-Het KO mice (n = 12), 0.5 mg/kg body weight/day x 8 days s.c., mean ± SEM

T1 sequence (P31751 whole entry): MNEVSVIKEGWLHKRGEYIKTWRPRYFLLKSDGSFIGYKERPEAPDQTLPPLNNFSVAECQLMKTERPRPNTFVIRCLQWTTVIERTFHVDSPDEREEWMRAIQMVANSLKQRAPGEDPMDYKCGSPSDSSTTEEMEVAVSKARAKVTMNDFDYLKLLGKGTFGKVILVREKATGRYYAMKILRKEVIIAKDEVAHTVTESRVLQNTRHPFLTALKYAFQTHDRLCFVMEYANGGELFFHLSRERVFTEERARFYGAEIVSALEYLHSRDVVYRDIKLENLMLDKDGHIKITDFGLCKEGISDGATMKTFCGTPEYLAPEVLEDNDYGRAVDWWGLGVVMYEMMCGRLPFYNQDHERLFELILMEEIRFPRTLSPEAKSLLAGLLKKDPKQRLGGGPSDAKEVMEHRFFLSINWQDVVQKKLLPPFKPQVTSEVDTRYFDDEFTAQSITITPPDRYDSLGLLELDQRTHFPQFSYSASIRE

## O=C([O-])CC([S][Au])C(=O)[O-] (stereo not shown) [ATM, aurothiomalate, reference compound]
Akt2
  insulin-induced increases in Akt activity: neither ICAPP nor ATM inhibited
[1]
  inhibition of fully-activated aPKC immunoprecipitated from tissues previously stimulated by insulin: did not inhibit

## NC(=O)c1ncn([C@@H]2C[C@H](COP(=O)(O)O)[C@@H](O)[C@H]2O)c1N [ICAPP, 1H-imidazole-4-carboxamide, 5-amino-1-[2,3-dihydroxy-4-[(phosphonooxy)methyl]cyclopentyl]-[1R-(1α,2β,3β,4α)]]
aPKC
  insulin-stimulated aPKC activity in adipose tissue: not in either muscle or adipose tissues
  insulin-stimulated aPKC activity in liver: diminished
  insulin-stimulated aPKC activity in muscle: not in either muscle or adipose tissues
Akt2
  insulin-induced increases in Akt activity: neither ICAPP nor ATM inhibited

## NC(=O)c1ncn([C@@H]2C[C@H](CO)[C@@H](O)[C@H]2O)c1N [ICAP, 1H-imidazole-4-carboxamide 5-amino-1-[2,3-dihydroxy-4-[hydroxymethyl]cyclopentyl]-[1R-(1α,2β,3β,4α)]]
Het-MλKO mice
  10-min-post-insulin serum glucose: 91 ± 8 mg/dL
